Results: patent US10519162B2, “6,7-dihydropyrazolo[1,5-α]pyrazin-4(5H)-one compounds and their use as negative allosteric modulators of mGluR2 receptors” (Janssen Pharmaceutica NV, priority 2014, dated 2019)

Legend:
human mGlu2 receptor = biological target: T1, human mGlu2 receptor (Homo sapiens, UniProt Q14416); test: [35S]GTPγS binding assay (mGluR2 negative allosteric modulation, glutamate ~EC80 60 μM); format: biochemical; settings: for Emax: maximal % inhibition relative to the control glutamate response (EC80 glutamate), read-out: GTPγS-hmGluR2 anGT Emax; for IC50: membranes from CHO cells transfected with human mGlu2 receptor, glutamate ~EC80 (60 μM), pIC50 = −log IC50 (M), read-out: GTPγS-hmGluR2 anGT pIC50 (converted)
T1 construct: expressed in transfected cells; host or cells: CHO cells
Experimental: 1) [^35S]GTPγS Binding Assay
[^35S]GTPγS Binding Assay
Total reaction volume was 200 μl. […] Membrane-bound radioactivity was counted in a Topcount.

T1 sequence (Q14416 19-872): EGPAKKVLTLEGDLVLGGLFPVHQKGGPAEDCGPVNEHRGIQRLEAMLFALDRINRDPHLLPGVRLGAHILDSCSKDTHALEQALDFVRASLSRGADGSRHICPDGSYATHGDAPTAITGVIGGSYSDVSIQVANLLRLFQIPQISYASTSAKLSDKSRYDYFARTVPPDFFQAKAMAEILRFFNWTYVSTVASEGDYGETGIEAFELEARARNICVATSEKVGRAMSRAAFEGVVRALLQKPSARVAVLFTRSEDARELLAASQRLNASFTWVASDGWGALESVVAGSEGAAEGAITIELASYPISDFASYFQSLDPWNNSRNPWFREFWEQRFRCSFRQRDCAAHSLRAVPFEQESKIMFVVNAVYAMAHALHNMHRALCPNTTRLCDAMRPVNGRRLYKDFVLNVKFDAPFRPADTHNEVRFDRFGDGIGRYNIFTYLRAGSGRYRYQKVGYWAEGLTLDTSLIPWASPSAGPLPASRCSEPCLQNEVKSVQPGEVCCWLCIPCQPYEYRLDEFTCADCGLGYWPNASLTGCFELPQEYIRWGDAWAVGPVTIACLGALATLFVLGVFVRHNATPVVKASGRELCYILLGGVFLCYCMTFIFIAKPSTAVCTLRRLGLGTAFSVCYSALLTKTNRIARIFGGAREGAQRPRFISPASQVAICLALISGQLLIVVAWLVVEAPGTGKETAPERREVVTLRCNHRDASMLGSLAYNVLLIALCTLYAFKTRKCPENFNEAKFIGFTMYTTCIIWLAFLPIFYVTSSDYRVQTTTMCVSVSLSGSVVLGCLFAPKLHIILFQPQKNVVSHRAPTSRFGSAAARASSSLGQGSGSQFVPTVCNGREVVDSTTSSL

| SMILES | Emax (human mGlu2 receptor) [%] | IC50 (human mGlu2 receptor) [M] | melting point [°C] |
| --- | --- | --- | --- |
| C[C@H]1CN(c2ccc(C(F)(F)F)cc2)C(=O)c2c(NC(=O)c3cnc(N)s3)cnn21 [Co. No. 74, 2-Amino-N-[(7S)-7-methyl-4-oxo-5-[4-(trifluoromethyl)phenyl]-6,7-dihydropyrazolo[1,5-a]pyrazin-3-yl]thiazole-5-carboxamide] | 113 | 3.39e-08 | 283.48 |
| Cc1c(F)cncc1C(=O)Nc1cnn2c1C(=O)N(c1ccc(C(F)(F)F)c(Cl)c1)C[C@@H]2C [Co. No. 135] | 108 | 2.29e-09 | 97.9 |
| COc1cccc(C(=O)Nc2cnn3c2C(=O)N(c2ccc(C(F)(F)F)cc2)C[C@@H]3C)c1F [Co. No. 59] | 110 | 2.24e-08 | 205.32 |
| C[C@H]1CN(c2ccc(C(F)(F)F)cc2)C(=O)c2c(NC(=O)c3cncc(F)c3)cnn21 [Co. No. 31] | 114 | 7.24e-09 | 185.29 |
| COc1ccc(C(=O)Nc2cnn3c2C(=O)N(c2ccc(C(F)(F)F)cc2)C[C@@H]3C)cn1 [Co. No. 42] | 105 | 1.1e-08 | 127.02 |
| CC(=O)Nc1cnn2c1C(=O)N(c1ccc(C(F)(F)F)cc1)C[C@@H]2C [Co. No. 160, N-[(7S)-7-methyl-4-oxo-5-[4-(trifluoromethyl)phenyl]-6,7-dihydropyrazolo[1,5-a]pyrazin-3-yl]acetamide] | 101 | 6.31e-07 | 142.82 |
| COc1ccnc(C(=O)Nc2cnn3c2C(=O)N(c2ccc(C(F)(F)F)cc2)C[C@@H]3C)c1 [Co. No. 60] | 111 | 2.45e-08 | 227.69 |
| C[C@H]1CN(c2ccc(C(F)(F)F)cc2)C(=O)c2c(NC(=O)c3cn[nH]c3)cnn21 [Co. No. 79] | 107 | 8.51e-08 | 240.1 |
| COCC1CN(c2ccc(C(F)(F)F)c(Cl)c2)C(=O)c2c(NC(=O)c3ccc(N)nc3)cnn21 (centres unmarked) [Co. No. 140] |  |  | 230.27 |
| Cc1ccc(C(=O)Nc2cnn3c2C(=O)N(c2ccc(C(F)(F)F)cc2)C[C@@H]3C)cn1 [Co. No. 54] | 104 | 1.78e-08 | 175.17 |
| Cc1cc(C(=O)Nc2cnn3c2C(=O)N(c2ccc(C(F)(F)F)cc2)C[C@@H]3C)no1 [Co. No. 72] | 99 | 4.27e-08 | 209.27 |
| Cc1cc(N)ncc1C(=O)Nc1cnn2c1C(=O)N(c1ccc(C(F)(F)F)cc1)C[C@@H]2C [Co. No. 163, 6-Amino-4-methyl-N-[(7S)-7-methyl-4-oxo-5-[4-(trifluoromethyl)phenyl]-6,7-dihydropyrazolo[1,5-a]pyrazin-3-yl]pyridine-3-carboxamide] | 106 | 2.57e-09 | 226.06 |
| Cc1cnc(N)c(C(=O)Nc2cnn3c2C(=O)N(c2ccc(SC(F)(F)F)cc2)C[C@@H]3C)c1 [Co. No. 207] |  |  | 172.9 |
| COCC1CN(c2ccc(C(F)(F)F)c(Cl)c2)C(=O)c2c(NC(=O)c3ccc(N)nc3)cnn21 (centres unmarked) [Co. No. 141] |  |  | 230.4 |
| Cc1cc(N2C[C@H](C)n3ncc(NC(=O)c4cccnc4N)c3C2=O)ccc1Cl [Co. No. 208] |  |  | 174.32 |
| C[C@H]1CN(c2ccc(C(F)(F)F)c(CO)c2)C(=O)c2c(NC(=O)c3ccc(N)nc3)cnn21 [Co. No. 165] |  |  | 238.83 |
| Cc1cc(C(=O)Nc2cnn3c2C(=O)N(c2ccc(C(F)(F)F)cc2)C[C@@H]3C)cc(CF)n1 (racemic) [Co. No. 209] |  |  | 157.37 |
| Cc1cc(C(=O)Nc2cnn3c2C(=O)N(c2ccc(C(F)(F)F)c(Cl)c2)C[C@@H]3C)cnc1N [Co. No. 169, 6-Amino-N-[(7S)-5-[3-chloro-4-(trifluoromethyl)phenyl]-7-methyl-4-oxo-6,7-dihydropyrazolo[1,5-a]pyrazin-3-yl]-5-methyl-pyridine-3-carboxamide] | 108 | 5.89e-10 |  |
